Experimental data: patent publication US20130122541A1, “MICROORGANISM PRODUCTION OF HIGH-VALUE CHEMICAL PRODUCTS, AND RELATED COMPOSITIONS, METHODS AND SYSTEMS” (The Regents of the University of Colorado, priority 2010, published 2013)
≈ marks a conversion by molar mass, not a printed value. Like-named read-outs stand apart in the source and are kept apart here.

Assays:
[1] = test system: B. subtilis; assay: MIC evaluation of 3-HP, B. subtilis aerobic, M9 media + glutamate, 96 well-plate, 24 h (Common Methods); type: cell-based
Procedure: For MIC evaluations, the final results are expressed in chemical agent concentrations determined by analysis of the stock solution by HPLC (i.e., see Subsection IIIb).
The minimum inhibitory concentration (MIC) was determined aerobically in a 96 well-plate format. […] Media supplements were added according to levels reported in the Supplements Table where specified. Overnight cultures of strains were grown in triplicate in 5 mL LB (with antibiotic where appropriate). A 1% (v/v) inoculum was introduced into a 5 ml culture of M9 minimal media+glutamate.

[2] = test system: Yeast strains (S288C background); assay: microbe, parasite or virus in culture; type: cell-based, Saccharomyces cerevisiae; settings: for MIC: Saccharomyces cerevisiae
Procedure: The minimum inhibitory concentration (MIC) was determined aerobically in a 96 well-plate format. […] Media supplements were added according to levels reported in the Supplements Table, where specified. Overnight cultures of strains were grown in triplicate in 5 mL SD media with vitamins (Methods in Enzymology vol. 350, page 17 (2002)). A 1% (v/v) inoculum was introduced into a 5 ml culture of SD minimal media without vitamins. After the cells reached mid-exponential phase, the culture was diluted to an OD600 of 0.200. The cells were further diluted 1:5 and a 10 μL aliquot was used to inoculate each well of a 96 well plate (˜10^4 cells per well) to total volume of 100 uL. […] Plates were incubated for 72 hours at 30 C.

[3] = test system: E. coli K12; assay: microbe, parasite or virus in culture; settings: Escherichia coli, K12, 24 h
[4] = strain BSX_0003.0 (pWH1520), M9 + glu + trp + 1 mM Xylose

## O=C(O)CCO [3-HP, 3-hydroxypropionic acid]
[1]; B. subtilis 168, M9 + glu + trp, supplements none (control)
  % Increase Over Control: 0%
[1]; [4]
  % Increase Over Control: 0%
  Avg 24 hr ΔOD600: 0.00
[1]; strain BSX_0011.0 (pWH1520-Pxyl:speB region), M9 + glu + trp + 1 mM Xylose
  Avg 24 hr ΔOD600: 0.07
[1]; strain BSX_0015.0 (pWH1520-Pxyl:metE region), M9 + glu + trp + 1 mM Xylose
  Avg 24 hr ΔOD600: 0.06
[2]; S288C, SC media vs SD control, aerobic
  % Increase Over Control: 33%
[2]; read-out: Average MIC Assay Result (g/L 3-HP), S288C, SC media, supplements none, aerobic
  MIC: 60 g/L (≈ 666 mM)
[2]; read-out: Average MIC Assay Result (g/L 3-HP), S288C, SD media, supplements none (control), aerobic
  MIC: 45 g/L (≈ 500 mM)
[2]; read-out: MIC Assay Result (g/L 3-HP), strain YX-022 (BY4722, pyes2.1-Aro3 pRS425-ILV6), SD, aerobic
  MIC: 60 g/L (≈ 666 mM)
[2]; read-out: MIC Assay Result (g/L 3-HP), strain YX-CJR-001 (BY4709, pRS426 EV, control), SD, aerobic
  MIC: 40 g/L (≈ 444 mM)
[2]; read-out: MIC Assay Result (g/L 3-HP), strain YX-CJR-002 (BY4709, pYes2.1-spe3), SD, aerobic
  MIC: 50 g/L (≈ 555 mM)
[2]; read-out: MIC Assay Result (g/L 3-HP), strain YX-CJR-003 (BY4709, pYes2.1-hom2), SD, aerobic
  MIC: 47 g/L (≈ 522 mM)
[2]; read-out: MIC Assay Result (g/L 3-HP), strain YX-CJR-005 (BY4709, pYes2.1-Met6), SD, aerobic
  MIC: 50 g/L (≈ 555 mM)
[2]; read-out: MIC Assay Result (g/L 3-HP), strain YX-CJR-006 (BY4709, pYes2.1-Ilv2), SD, aerobic
  MIC: 57 g/L (≈ 633 mM)
[2]; read-out: MIC Assay Result (g/L 3-HP), strain YX-CJR-010 (BY4709, pyes2.1-Thr1), SD, aerobic
  MIC: 60 g/L (≈ 666 mM)
[2]; read-out: MIC Assay Result (g/L 3-HP), strain YX-CJR-014 (BY4709, pyes2.1-arg2), SD, aerobic
  MIC: 60 g/L (≈ 666 mM)
[2]; read-out: MIC Assay Result (g/L 3-HP), strain YX-CJR-017 (BY4709, pyes2.1-Aro7), SD, aerobic
  MIC: 70 g/L (≈ 777 mM)
[2]; strain YX-022 (pyes2.1-Aro3 pRS425-ILV6) vs control, aerobic
  % Increase Over Control: 50%
[2]; strain YX-CJR-002 (pYes2.1-spe3) vs YX-CJR-001, aerobic
  % Increase Over Control: 25%
[2]; strain YX-CJR-003 (pYes2.1-hom2) vs YX-CJR-001, aerobic
  % Increase Over Control: 17%
[2]; strain YX-CJR-005 (pYes2.1-Met6) vs YX-CJR-001, aerobic
  % Increase Over Control: 25%
[2]; strain YX-CJR-006 (pYes2.1-Ilv2) vs YX-CJR-001, aerobic
  % Increase Over Control: 42%
[2]; strain YX-CJR-010 (pyes2.1-Thr1) vs YX-CJR-001, aerobic
  % Increase Over Control: 50%
[2]; strain YX-CJR-014 (pyes2.1-arg2) vs YX-CJR-001, aerobic
  % Increase Over Control: 50%
[2]; strain YX-CJR-017 (pyes2.1-Aro7) vs YX-CJR-001, aerobic
  % Increase Over Control: 75%
[3]; read-out: Minimum inhibitory concentration (MIC) for E. coli K12 in 100 g/L stock solution 3-HP (control)
  MIC: 20 mg/mL (≈ 222 mM)
[3]; read-out: Minimum inhibitory concentration (MIC) of 3-HP for E. coli K12 in M9 minimal media
  MIC: 30 mg/mL (≈ 333 mM)
